Results reported in PMC10671849, “Synthesis and Evaluation of Marine-Inspired Compounds Result in Hybrids with Antitrypanosomal and Antileishmanial Activities” (Marine Drugs, 2023).
In brackets after ≈: the same amount, converted by molar mass.

Experiments:
Format in all cases: cell-based
[1] = system: Candida albicans ATCC 10231; assay: Antifungal broth microdilution (CLSI M27-A3), MIC/MLC; details: for MIC: Candida albicans, ATCC10231, broth microdilution, 16 to 512 µg/mL, 48 h at 36 °C
Description: (§1) All tested compounds (9a–9d, 10a–10c, 13, 14, and eugenol (1)) were prepared in DMSO (Sigma-Aldrich, St. Louis, MO, USA) at a concentration of 10 mg/mL. The reference drugs used (voriconazole (Sigma-Aldrich, St. Louis, MO, USA) for fungi and quality control; gentamicin (Sigma-Aldrich, St. Louis, MO, USA) for bacterial and quality control) were prepared at 6.4 mg/mL. The stock solutions of the compounds were stored at –20 °C until immediately before the assays and then were diluted in fresh culture medium, RPMI-1640 medium (Biochrom AG, Berlin, Germany) buffered with 3-(N-morpholino)propanesulfonic acid (MOPS—Sigma-Aldrich, St. Louis, MO, USA) for fungi and cation-adjusted Mueller–Hinton broth (MHBII—Becton Dickinson, France) for bacteria, henceforth referred to as RPMI and MHB, respectively.
(§2) Fungal strains, including reference strains and clinical isolates, were used for the study of the antifungal activity: a yeast reference strain from American Type Culture Collection (ATCC), Candida albicans ATCC 10231; filamentous fungi reference strain Aspergillus fumigatus ATCC 240305; and a clinical isolate of dermatophytes Trichophyton rubrum FF5. Candida krusei ATCC 6258 was used as a quality control. All fungal strains were stored in Sabouraud dextrose broth (SDB—Bio-Mèrieux, Marcy L’Etoile, France) with glycerol (20%) at −80 °C and were subcultured in Sabouraud dextrose agar (SDA—Bio-Mèrieux, Marcy L’Etoile, France) for 24–72 h (yeasts and A. fumigatus) or 5–7 days (T. rubrum) before each assay to obtain optimal growth and purity conditions. Two bacteria strains were used, one Gram positive and one Gram negative: Staphylococcus aureus ATCC 25923 and Escherichia coli ATCC 25922, respectively. The bacterial strains were stored in trypticase soy broth (TSB—Biolife, Milan, Italy) with glycerol (10%) at −80 °C and subcultured in Mueller–Hinton agar (MHA—Bio-Mèrieux, Marcy L’Etoile, France) for 24 h before each assay.
(§3) For the purpose of quantitatively measuring the antifungal activity in vitro, a broth microdilution method was used to determine the MICs using the CLSI reference protocols M27-A3 [27] for yeasts and M38-A2 [28] for filamentous fungi. In short, two-fold serial dilutions of each stock solution were prepared using RPMI medium (pH 7) to obtain a range of test concentrations from 16 to 512 μg/mL. The yeasts or spore suspensions were prepared from 24 to 72-h cultures (yeasts and Aspergillus) or from 5–7 days of cultures (dermatophyte) in saline solution (with a drop of Tween 20 for the filamentous fungi). The transmittance of the cell density of yeasts was adjusted to 0.5 McFarland standard, and for filamentous fungi, the spores were counted using a Neubauer camera. Dilutions were performed using RPMI to obtain cell final concentrations in the plate of 0.5–2.5 × 10^3 colony forming units (CFU)/mL for yeasts, 0.4–5 × 10^4 CFU/mL for Aspergillus, and 1–3 × 10^3 CFU/mL for dermatophytes. Plates with the prepared serial dilutions of the tested compounds were inoculated with the same volume of the fungal suspension, and sterility (wells with only culture medium), growth (wells with cell suspensions in culture medium), and DMSO controls (wells with cell suspensions in culture medium containing 1% DMSO) were included in each assay. […] For the tested compounds, MIC values were considered the minimum concentration that inhibited the yeast growth by 100% compared to the growth control. The reference drug, voriconazole, was tested against C. krusei ATCC 6258 as a quality control, and the results were within the limits of CLSI reference documents.
(§4) After MIC readings, 10 μL of suspension were collected from wells corresponding to the MIC and the highest concentration following the MIC and were deposited in SDA plates. The plates were incubated following the conditions previously mentioned for the MIC evaluation, and the MLC was determined as the lowest concentration at which no fungal growth is observed.

[2] = system: Aspergillus fumigatus ATCC 240305; assay: Antifungal broth microdilution (CLSI M38-A2), MIC/MLC; details: for MIC: Aspergillus fumigatus, ATCC240305, broth microdilution, 16 to 512 µg/mL, 48 h at 36 °C
Description: as §1, §2, §3, §4

Trichophyton rubrum FF5 = assay: as above; details: for MIC: Trichophyton rubrum, FF5, broth microdilution, read-out: MIC T. rubrum; for MIC / MIC T. rubrum: 16 to 512 µg/mL, 5–7 days at 26 °C; for MIC T. rubrum: broth microdilution; for MLC T. rubrum: minimum lethal concentration, subculture on SDA after MIC reading
Description: as §1, §2, §3, §4

[3] = minimum lethal concentration, subculture on SDA after MIC reading

| SMILES | MIC [1] [µg/mL] | MIC [2] [µg/mL] | MIC (Trichophyton rubrum FF5) [µg/mL] | MIC T. rubrum (Trichophyton rubrum FF5) [µg/mL] | MLC T. rubrum (Trichophyton rubrum FF5) [µg/mL] | MLC C. albicans [1, 3] [µg/mL] | MLC A. fumigatus [2, 3] [µg/mL] |
| --- | --- | --- | --- | --- | --- | --- | --- |
| C=CCc1cc(Cn2cc(-c3nc4ccccc4c(=O)o3)nn2)c(O)c(OC)c1 [compound 14, 2-(1-(5-allyl-2-hydroxy-3-methoxybenzyl)-1H-1,2,3-triazol-4-yl)-4H-benzo[d][1,3]oxazin-4-one] | > 512 | > 512 | 256 to 512 (≈ 656 to 1310 µM) | 256 to 512 | > 512 | – | – |
| C=CCc1cc(Cn2cc(-c3nc4ccc(OC)cc4c(=O)[nH]3)nn2)c(O)c(OC)c1 [10b, 2-(1-(5-allyl-2-hydroxy-3-methoxybenzyl)-1H-1,2,3-triazol-4-yl)-6-methoxyquinazolin-4(3H)-one] | > 512 | > 512 | > 512 | – | – | – | – |
| C=CCc1ccc(O)c(OC)c1 [Eugenol, eugenol, reference compound] | 512 (≈ 3120 µM) | 512 (≈ 3120 µM) | 256 (≈ 1560 µM) | – | – | > 512 | > 512 |
| C=CCc1ccc(OCc2cn(CC(=O)Nc3ccccc3C(=O)O)nn2)c(OC)c1 [compound 13, 2-(2-(4-((4-allyl-2-methoxyphenoxy)methyl)-1H-1,2,3-triazol-1-yl)acetamido) benzoic acid] | > 512 | > 512 | > 512 | – | – | – | – |
| C=CCc1cc(Cn2cc(-c3nc4ccccc4c(=O)[nH]3)nn2)c(O)c(OC)c1 [10a, 2-(1-(5-allyl-2-hydroxy-3-methoxybenzyl)-1H-1,2,3-triazol-4-yl)quinazolin-4(3H)-one] | > 512 | > 512 | 512 (≈ 1310 µM) | 256 to 512 | > 512 | – | – |
| C=CCc1cc(Cn2cc(C(=O)Nc3ccc(Cl)cc3C(N)=O)nn2)c(O)c(OC)c1 [9d, 1-(5-allyl-2-hydroxy-3-methoxybenzyl)-N-(2-carbamoyl-4-chlorophenyl)-1H-1,2,3-triazole-4-carboxamide] | > 512 | > 512 | 512 (≈ 1160 µM) | 256 to 512 | > 512 | – | – |
| C=CCc1cc(Cn2cc(C(=O)Nc3ccc(F)cc3C(N)=O)nn2)c(O)c(OC)c1 [9c, 1-(5-allyl-2-hydroxy-3-methoxybenzyl)-N-(2-carbamoyl-4-fluorophenyl)-1H-1,2,3-triazole-4-carboxamide] | > 512 | > 512 | > 512 | – | – | – | – |
| C=CCc1cc(Cn2cc(-c3nc4ccc(F)cc4c(=O)[nH]3)nn2)c(O)c(OC)c1 [10c, 2-(1-(5-allyl-2-hydroxy-3-methoxybenzyl)-1H-1,2,3-triazol-4-yl)-6-fluoroquinazolin-4(3H)-one] | > 512 | > 512 | 512 (≈ 1260 µM) | 256 to 512 | > 512 | – | – |
| C=CCc1cc(Cn2cc(C(=O)Nc3ccccc3C(N)=O)nn2)c(O)c(OC)c1 [9a, 1-(5-allyl-2-hydroxy-3-methoxybenzyl)-N-(2-carbamoylphenyl)-1H-1,2,3-triazole-4-carboxamide] | > 512 | > 512 | 512 (≈ 1260 µM) | 256 to 512 | > 512 | – | – |
| C=CCc1cc(Cn2cc(C(=O)Nc3ccc(OC)cc3C(N)=O)nn2)c(O)c(OC)c1 [9b, 1-(5-allyl-2-hydroxy-3-methoxybenzyl)-N-(2-carbamoyl-4-methoxyphenyl)-1H-1,2,3-triazole-4-carboxamide] | > 512 | > 512 | > 512 | – | – | – | – |
